Several values for one entry are separate records, joined by “and”; a condition that tells them apart may be missing. Equal values may be shown once. Read-outs that look alike come from different tables or passages of the source.
Legend:
[1] = test system: Sheep Anti-Dig Serum (heterogeneous anti-digoxin antiserum); experiment: Specificity determination, inhibition of [3H]digoxin binding in dextran charcoal RIA; conditions: inhibition of antibody binding to [3H]digoxin
Description: (§1) Antisera specific for digoxin was prepared in sheep as previously described by Curd et al, Proc. Nat. Acad. Sci. 65: 2401 (1971). High affinity antidigoxin sheep antisera was used in the clinical RIA for digoxin (described below).
(§2) The specificity of each antidigoxin antibody for related cardiac glycosides was assessed by the inhibition of binding of antibody in the dextran charcoal radioimmunoassay Smith (1972), supra. To a constant amount of H^3 -digoxin (1.5 ng) in 1 ml of buffer is added different amounts ([…]) of various cardiac glycosides: digoxin, digitoxin, digitoxigenin, digoxigenin, acetyl-strophanthidin, ouabain, deslanoside, and endogenous steroids such as chloresterol, cortisol, androsterone, 17-[beta]-estradiol, progesterone, and testosterone. After 5 minutes, a constant amount of anti-digoxin antibody was added and the assay was continued as described above. Comparison among different antidigoxin antibodies with respect to their fine specificity was made by determining the amount of cardiac glycoside required to achieve 50% inhibition relative to that required for cold digoxin.
(§3) Specificity of monoclonal antibody binding site for related cardiac glycosides was examined by means of hapten inhibition experiments in which the binding of monoclonal antibody to H^3 -digoxin was inhibited by cold digoxin and related cardiac glycosides.

[2] = test system: monoclonal anti-digoxin antibody Dig 25-54; experiment: as above; parameters: species or system mouse (A/J); conditions: inhibition of antibody binding to [3H]digoxin
Description: as §2, §3

[3] = test system: monoclonal anti-digoxin antibody Dig 35-20; experiment: as above; parameters: species or system mouse (A/J); conditions: inhibition of antibody binding to [3H]digoxin
Description: as §2, §3

[4] = test system: monoclonal anti-digoxin antibody Dig 26-10; experiment: as above; parameters: species or system mouse (A/J); conditions: inhibition of antibody binding to [3H]digoxin
Description: as §2, §3

[5] = test system: monoclonal anti-digoxin antibody Dig 26-40; experiment: as above; parameters: species or system mouse (A/J); conditions: inhibition of antibody binding to [3H]digoxin
Description: as §2, §3

[6] = test system: monoclonal anti-digoxin antibody Dig 26-20; experiment: as above; parameters: species or system mouse (A/J); conditions: inhibition of antibody binding to [3H]digoxin
Description: as §2, §3

[7] = test system: monoclonal anti-digoxin antibody Dig 26-30; experiment: as above; parameters: species or system mouse (A/J); conditions: inhibition of antibody binding to [3H]digoxin
Description: as §2, §3

[8] = molecular target: monoclonal anti-digoxin antibody Dig 26-10; experiment: Affinity constant by equilibrium dialysis; type: binding, mouse (A/J); conditions: confirmed by equilibrium dialysis
Text: The affinity constant determined for Dig 26-10 (approximately 10^9 M^-1) was confirmed by equilibrium dialysis. […] The Ko determined for Dig 35-20 was also high, 1.3-3.4×10^9 M^-1.

[9] = molecular target: heterogeneous anti-digoxin antibody, Pooled mouse antibody; experiment: Affinity determination, [3H]digoxin dextran-coated charcoal RIA; type: binding, mouse (A/J); conditions: antibody source: serum; 60 min; read-out: Affinity Constant K0 for digoxin (converted)
Description: (§4) A pool of mouse antidigoxin antibody was prepared from immune sera as follows. A/J mice immunized with Dig-HSA as described above, were bled from the tail on the 3rd or 4th week following intraperitoneal injection of antigen. Their sera were pooled and the antidigoxin antibodies were purified from the sera by affinity chromatography as described below. This antibody preparation was used as a standard antidigoxin reagent in the PVC-plate RIA (described below).

[10] = test system: heterogeneous anti-digoxin antibody, Pooled mouse antisera; experiment: as above; type: binding, mouse (A/J); conditions: antibody source: serum; 60 min; read-out: Affinity Constant K0 for digoxin (converted)
Description: as §4

[11] = molecular target: Fab fragment of monoclonal anti-digoxin antibody Dig 26-10; experiment: as above; conditions: read-out: Affinity Constant K0 for digoxin, Fab of Dig 26-10, 60 min
[12] = molecular target: monoclonal anti-digoxin antibody Dig 26-20 (IgG2a); experiment: as above; type: binding, mouse (A/J); conditions: 60 min, read-out: Affinity Constant K0 for digoxin (converted)
Description: (§5) Using the dextran coated charcoal binding method for separation of bound antibody from free H^3 -digoxin (Smith, J. Clin. Invest. 51:1583 (1972)), affinities (Ko) for monoclonal anti-digoxin antibodies were determined for antibody present in culture media and in preparations purified from ascites. Data were plotted according to a modified Sips equation (Nisonoff et al, J. Immunol. 80:417 (1958)), as described earlier herein. Typical of single component systems, a linear plot was obtained for all hybridomas analyzed. Correlation coefficients (r) varied from 0.989 to 0.999 for the monoclonal antibodies analyzed by this method. As anticipated, no significant difference was found for affinity constants determined for antibody present in culture media and in preparations following purification from ascites fluid (Table III).

[13] = test system: monoclonal anti-digoxin antibody Dig 25-54 (IgG1); experiment: as above; type: binding, mouse (A/J); conditions: for Kd: 60 min, read-out: Affinity Constant K0 for digoxin (converted)
Description: as §5

[14] = molecular target: monoclonal anti-digoxin antibody Dig 26-40 (IgG2a); experiment: as above; type: binding, mouse (A/J); conditions: 60 min, read-out: Affinity Constant K0 for digoxin (converted)
Description: as §5

[15] = molecular target: monoclonal anti-digoxin antibody Dig 26-10 (IgG2a); experiment: as above; type: binding, mouse (A/J); conditions: for Kd: 60 min, read-out: Affinity Constant K0 for digoxin (converted)
Description: as §5

[16] = molecular target: monoclonal anti-digoxin antibody Dig 26-30 (IgG2a); experiment: as above; type: binding, mouse (A/J); conditions: 60 min, read-out: Affinity Constant K0 for digoxin (converted)
Description: as §5

[17] = test system: monoclonal anti-digoxin antibody Dig 35-20 (IgG1); experiment: as above; type: binding, mouse (A/J); conditions: for Kd: 60 min, read-out: Affinity Constant K0 for digoxin (converted)
Description: as §5

[18] = test system: heterogeneous anti-digoxin antibody, Sheep Antisera; experiment: as above; type: binding; conditions: antibody source: serum; 60 min; read-out: Affinity Constant K0 for digoxin (converted)
Description: as §1

C[C@H]1O[C@@H](O[C@H]2[C@@H](O)C[C@H](O[C@H]3[C@@H](O)C[C@H](O[C@H]4CC[C@@]5(C)[C@H](CC[C@@H]6[C@@H]5C[C@@H](O)[C@]5(C)[C@@H](C7=CC(=O)OC7)CC[C@]65O)C4)O[C@@H]3C)O[C@@H]2C)C[C@H](O)[C@@H]1O [Digoxin]
amount of inhibitor required to give 50% inhibition relative to the amount of digoxin which gave 50% inhibition [1]: 1.0 | amount of inhibitor required to give 50% inhibition relative to the amount of digoxin which gave 50% inhibition [2]: 1.0 | amount of inhibitor required to give 50% inhibition relative to the amount of digoxin which gave 50% inhibition [3]: 1.0 | amount of inhibitor required to give 50% inhibition relative to the amount of digoxin which gave 50% inhibition [4]: 1.0 | amount of inhibitor required to give 50% inhibition relative to the amount of digoxin which gave 50% inhibition [5]: 1.0 | amount of inhibitor required to give 50% inhibition relative to the amount of digoxin which gave 50% inhibition [6]: 1.0 | amount of inhibitor required to give 50% inhibition relative to the amount of digoxin which gave 50% inhibition [7]: 1.0 | Kd [8]: ~1 nM | Kd [9]: 0.286 nM | Kd [10]: 0.323 nM | Kd [11]: 0.833 nM and 1 nM | Kd ([12]; antibody purified from ascites): 0.294 nM | Kd ([12]; antibody source: culture media): 0.714 nM | Ko for digoxin [13]: 3.5 to 5.2 ×10^8 M^-1 | apparent affinity Ko for digoxin [13]: < 10^8 M^-1 | Kd ([13]; antibody purified from ascites): 1.92 nM | Kd ([13]; antibody source: culture media): 3.85 nM | Kd ([14]; antibody purified from ascites): 0.385 nM | Kd ([14]; antibody source: culture media): 0.227 nM | Kd ([15]; antibody purified from ascites): 0.213 nM | Kd ([15]; antibody source: culture media): 0.118 nM | Ko for digoxin, average value for the intact antibody ([15]; intact antibody): < 5×10^9 | Kd ([16]; antibody purified from ascites): 0.172 nM | Kd ([16]; antibody source: culture media): 0.256 nM | Ko for digoxin [17]: 1.3-3.4×10^9 M^-1 | Kd ([17]; antibody purified from ascites): 0.769 nM | Kd ([17]; antibody source: culture media): 0.526 nM | Kd [18]: 0.0833 nM

Source: patent US4803167A, “Monoclonal antidigoxtin antibodies” (The General Hospital Corporation, priority 1982, dated 1989)
